Earlier results, collected in patent US20080317886A1, “Compositions for Preventing and Reducing Delayed Onset Muscle Soreness” (priority 2005, published 2008).

What was measured:
muscle damage (CPK, LDH) = conditions: 3 g HMB per day, six weeks of training, 20 km run; compared to placebo
[1] = tested on: perceived muscle soreness; conditions: downhill running protocol
[2] = tested on: muscle damage (blood CPK); conditions: men and women, 4-week weight training program
[3] = tested on: muscle catabolism (3-methylhistidine); conditions: intense resistance-weight training
[4] = HMB with 75 g glucose in water compared with HMB with water
[5] = tested on: delayed onset muscle soreness; conditions: six days supplementation with 40 mg/kg HMB, single bout of exercise
[6] = "in as little as"

For beta-hydroxy-beta-methylbutyrate [HMB], the “blood levels of CPK after the run” value (muscle damage (CPK, LDH)) is listed as “reduced levels”, the “blood levels of LDH after the run” value (muscle damage (CPK, LDH)) is listed as “reduced levels” and the perceived muscle soreness [1] is listed as “reduced”. For the same substance, the strength loss [1] was “less strength loss”, the “decrease in blood CPK levels” value [2] was 2% and the “plasma 3-MH” value [3] was “significant decrease”. For the same substance, the “HMB excreted in the urine” value [4] was “less”, the “plasma HMB levels” value [4] was “lower” and the DOMS [5] was “did not reduce”. The “time to increase of plasma levels” value [6] was 30 min.
